The test system of one data set is Jurkat FADD-/- cells. In words: Necroptosis inhibition in Jurkat FADD-/- cells + TNF-α, 8 h, AK release. The following applies: Homo sapiens. Format: cell-based. On the procedure:
The second screening step aimed to determine the EC50 of selected compounds. L929 and Jurkat FADD^-/- cells were co-incubated with TNF-α and test compounds at 10-point concentration range (0.004–100 μM) for 8 h. Compound-mediated inhibition of necroptosis was assessed through AK release and the EC50 calculated. Jurkat cells were used to validate results in human cells. […] In HTS step two, 4374 compounds (3353 hits from HTS step one plus 1021 near neighbours) were evaluated for potency by dose-response curves. From those, 1,438 hit compounds passed the selection criteria on both cell lines, corresponding to a […] hit rate.
L929 cells were co-incubated for 8 h with mTNF-α and test compounds at 31.7 μM after which AK release was measured. […] Hit compounds were then evaluated for apoptosis modulation. Further details are provided as Supplementary Information.
Cell treatments and viability assays. Cells were seeded in 384- or 96-well plates at 1000 or 8000 cells/well (in 12.5 μL or 100 μL final volume), respectively, using a Multidrop^TM Combi Reagent Dispenser (ThermoFisher Scientific). For inducing necroptosis, L929 and Jurkat FADD^-/- cells were incubated with 10 ng/mL mTNF-α and hTNF-α respectively; BV2 cells with 25 µM Z-VAD-FMK, and HT29 cells with 20 ng/mL hTNF-α, 250 nM Smac mimetic BV6 and 10 μM Z-VAD-FMK. Cells were co-incubated in the presence of test compounds at target concentrations for 8 or 24 h. Nec-1 at 29.2 μM was used as positive control. For apoptosis assays, Jurkat E6.1 cells were co-incubated with 0.5 μg/mL CHX and test compounds at target concentrations for 8 h. […]
(§1) Adenylate kinase (AK) and lactate dehydrogenase (LDH) release from damaged cells were measured using the Toxilight BioAssay Kit (Lonza, Basel, Switzerland) and the Cytotoxicity Detection Kit (Roche Diagnostics GmbH, Mannheim, Germany), respectively. Adenosine triphosphate (ATP) metabolism was evaluated using CellTiter-Glo^TM Luminescent Cell Viability Assay (Promega, Madison, WI, USA). Apoptosis was determined by the measurement of caspase-3/-7 activity using the Caspase-Glo® 3/7 Assay (Promega) according to the manufacturer’s instructions. Cellular metabolic activity was measured using CellTiter 96® Aqueous Non-Radioactive Cell Proliferation (MTS) Assay (Promega). Luminescence signal was recorded using a GloMax®-MultiDetection System (Promega) and absorbance with a Model 680 microplate reader (Bio-Rad Laboratories Inc, Hercules, CA, USA).
Primary high-throughput screen. […] Eight hours after co-incubation of L929 cells with mTNF-α and test compounds, AK release was evaluated. […] Eight hours after co-incubation of L929 or Jurkat FADD^-/- cells with TNF-α and test compounds, AK release was evaluated. […]

Data set [1] can be described thus: MDCK-MDR1 cell-based permeability assay. Format: in vitro ADME. The following applies: dog.
Another data set has as its system Jurkat E6.1 cells. In words: Apoptosis modulation, caspase-3/-7 activity in Jurkat E6.1 cells + CHX, 8 h. Format: cell-based, human. The following applies: Jurkat E6.1 + 0.5 μg/mL CHX. On the procedure: Since apoptosis and necroptosis share key molecular players[20] and some RIPK3 necroptosis inhibitors may induce caspase-dependent cytotoxicity, hit compounds were tested for modulation of apoptosis activity in step three of the HTS workflow. Preliminary tests prior to screening encompassed the evaluation of several apoptosis inducers, such as FasL, doxorubicin, cycloheximide (CHX) and staurosporine, for their capability to modulate caspase-3/-7 activity in human Jurkat E6.1 T-cells, using Z-VAD-FMK and SN-2668/Nec-1 as negative and positive controls, respectively. […]
as §1, with “Luminescence signal was recorded using a GloMax®-MultiDetection System (Promega) and absorbance with a Model 680 microplate reader (Bio-Rad Laboratories Inc, Hercules, CA, USA).” left out
Primary high-throughput screen. […] Eight hours after co-incubation of L929 cells with mTNF-α and test compounds, AK release was evaluated. […]

[2] abbreviates: 8 h, screening step 2, AK release, read-out: EC50 Jurkat FADD(-/-) + TNF-α (in vitro).
The mark [3] stands for this setting: read-out: Jurkat FADD (-/-) (in vitro) pEC50 (converted).

From publication PMC7026080, “Phenotypic high-throughput screening platform identifies novel chemotypes for necroptosis inhibition” (Cell Death Discovery, 2020) come the findings set out here.

Molecules are shown by their SMILES. Read-outs that look alike come from different tables or passages of the source.

On to `O=C(c1cnn(Cc2ccccc2)c1)N1CCOc2ccccc2C1` [SN-6109], for which the EC50 in the data set on Jurkat FADD-/- cells (setting [2]) was 630 nM. For the same molecule, the EC50 in the data set with Jurkat FADD-/- cells (setting [3]) was 631 nM. Moreover, in data set [1], the Papp A→B (usually how fast a substance crosses the layer from the apical side) is 35 ×10⁻⁶ cm/s and the Papp B→A (in general, how fast a substance crosses the layer from the basolateral side) stood at 18 ×10⁻⁶ cm/s. Also, the “Modulation of caspase-3/-7 activity (apoptosis)” value in the data set on Jurkat E6.1 cells is reported as “no apoptosis modulation”.
Take `CN1C(=O)C(Cc2c[nH]c3ccccc23)NC1=S` (stereo not shown) [Nec-1, necrostatin-1]: the EC50 in the data set with Jurkat FADD-/- cells (setting [2]) came to 390 nM. Also, in the data set with Jurkat FADD-/- cells (setting [3]), the EC50 is 398 nM. In addition, in data set [1], the Papp A→B was determined as 31 ×10⁻⁶ cm/s and the Papp B→A was 34 ×10⁻⁶ cm/s. Moreover, in the data set on Jurkat E6.1 cells, the “Modulation of caspase-3/-7 activity (apoptosis)” value is listed as “failed to modulate caspase activity”.
